Experimental data taken from US4521340A, “Pharmaceutically acceptable salts of the antibiotic C-19393 E5” (priority 1980, dated 1985).
“Also recorded” adds a separate entry of the source. Counter-ions that a name gives are not always drawn. Like-named read-outs stand apart in the source and are kept apart here.

Assays:
[1] = tested on: gram-positive and gram-negative bacteria; experiment: Antibacterial activity (summary in words); format: cell-based
Source text: (§1) The biological properties of C-19393 E5 are as follows.

[2] = Stability of aqueous solution; format: physicochemical; settings: neutral pH region
[3] = tested on: K-101 strain; experiment: Growth on minimal medium containing compound (Table 4); format: cell-based, Streptomyces griseus subsp. cryophilus; settings: 28° C., 4 days
Description: (§2) The 20 plates were selected from among those cultivated with about 20-100 colonies per plate. These colonies were inoculated by the replicate method onto a minimal medium (composition: 10 g of glycerol, 1 g of L-asparagine,1 g of dipotassium phosphate, 0.2 g of magnesium sulfate, 20 g of agar and distilled water; pH 7.1) and a screening medium A (the minimal medium supplemented with 50 mg/l of L-cysteine) and each of the media was incubated at 28° C. for 3 days. Another 20 plates were selected from among those cultivated with about 20-100 colonies per plate. These colonies were replicated on a minimal medium (the same as said composition) and a screening medium B (the minimal medium supplemented with 50 mg/l of sodium thiosulfate) and each of the media was incubated at 28° C. for 3 days. The strains thus obtained were incubated on minimal media containing sodium thiosulfate, L-cysteine or L-methionine in various concentrations at 28° C. for 4 days.

[4] = tested on: K-4 strain; experiment: as above; format: cell-based, Streptomyces griseus subsp. cryophilus; settings: 28° C., 4 days
Description: as §2

[5] = tested on: C-19393 strain; experiment: as above; format: cell-based, Streptomyces griseus subsp. cryophilus; set-up: key to the marks not given beside the values; settings: 28° C., 4 days
Description: as §2

[6] = tested on: SR-135 strain; experiment: Growth on minimal medium containing compound (Table 5); format: cell-based, Streptomyces griseus subsp. cryophilus; settings: 28° C., 4 days
Description: (§3) SR-135 and C-19393 strains were incubated on a minimal medium containing sodium thiosulfate, L-cysteine or L-methionine at 28° C. for 4 days.

[7] = tested on: C-19393 strain; experiment: as above; format: cell-based, Streptomyces griseus subsp. cryophilus; settings: 28° C., 4 days
Description: as §3

[8] = tested on: SR-135 strain; settings: 28° C., 7 days
[9] = tested on: C-19393 strain; settings: 28° C., 7 days
[10] = tested on: C-19393 strain; experiment: microbe, parasite or virus in culture; settings: Streptomyces griseus, 168 h, read-out: Concentration at which growth was inhibited
[11] = Solubility; format: physicochemical
[12] = tested on: Escherichia coli NIHJ; experiment: Antimicrobial spectrum, MIC (Bouillon agar); format: cell-based; settings: read-out: Minimum Inhibitory Concentration
Source text: as §1

[13] = tested on: Comamonas terrigena IFO 13299; experiment: Antimicrobial spectrum, MIC (Bouillon agar); format: cell-based; settings: IFO13299, read-out: Minimum Inhibitory Concentration
Source text: as §1

[14] = tested on: Proteus vulgaris IFO 3988; experiment: Antimicrobial spectrum, MIC (Bouillon agar); format: cell-based; settings: IFO3988, read-out: Minimum Inhibitory Concentration
Source text: as §1

[15] = tested on: Pseudomonas aeruginosa IFO 3080; experiment: Antimicrobial spectrum, MIC (Bouillon agar); format: cell-based; settings: IFO3080, read-out: Minimum Inhibitory Concentration
Source text: as §1

[16] = tested on: Bacillus subtilis PCI 219; experiment: Antimicrobial spectrum, MIC (Bouillon agar); format: cell-based; settings: PCI219, read-out: Minimum Inhibitory Concentration
Source text: as §1

[17] = tested on: Serratia marcescens IFO 12648; experiment: Antimicrobial spectrum, MIC (Bouillon agar); format: cell-based; settings: IFO12648, read-out: Minimum Inhibitory Concentration
Source text: as §1

[18] = tested on: Salmonella typhimurium IFO 12529; experiment: Antimicrobial spectrum, MIC (Bouillon agar); format: cell-based; settings: Salmonella enterica, read-out: Minimum Inhibitory Concentration
Source text: as §1

[19] = tested on: Klebsiella pneumoniae IFO 3317; experiment: Antimicrobial spectrum, MIC (Bouillon agar); format: cell-based; settings: IFO3317, read-out: Minimum Inhibitory Concentration
Source text: as §1

[20] = tested on: Alcaligenes faecalis IFO 13111; experiment: Antimicrobial spectrum, MIC (Bouillon agar); format: cell-based; settings: IFO13111, read-out: Minimum Inhibitory Concentration
Source text: as §1

[21] = tested on: Proteus mirabilis ATCC 21100; experiment: Antimicrobial spectrum, MIC (Bouillon agar); format: cell-based; settings: ATCC21100, read-out: Minimum Inhibitory Concentration
Source text: as §1

[22] = tested on: Sarcina lutea IFO 3232; experiment: Antimicrobial spectrum, MIC (Bouillon agar); format: cell-based; settings: Micrococcus luteus, IFO3232, read-out: Minimum Inhibitory Concentration
Source text: as §1

[23] = tested on: Staphylococcus aureus 209P; experiment: Antimicrobial spectrum, MIC (Bouillon agar); format: cell-based; settings: read-out: Minimum Inhibitory Concentration
Source text: as §1

SMILES	Growth ([3]; 3.125 mg/l)	Growth ([3]; 6.25 mg/l)	Growth ([3]; 12.5 mg/l)	Growth ([3]; 25 mg/l)	Growth ([3]; 50 mg/l)	Growth ([3]; 100 mg/l)	Growth ([4]; 3.125 mg/ml (so in the source))	Growth ([4]; 6.25 mg/ml (so in the source))	Growth ([4]; 12.5 mg/ml (so in the source))	Growth ([4]; 25 mg/ml (so in the source))	Growth ([4]; 50 mg/ml (so in the source))	Growth ([4]; 100 mg/ml (so in the source))	Growth ([5]; 3.125 mg/ml (so in the source))	Growth ([5]; 6.25 mg/ml (so in the source))	Growth ([5]; 12.5 mg/ml (so in the source))	Growth ([5]; 25 mg/ml (so in the source))	Growth ([5]; 50 mg/ml (so in the source))	Growth ([5]; 100 mg/ml (so in the source))	Growth ([6]; 3.125 mg/l)	Growth ([6]; 6.25 mg/l)	also measured
CC(=O)N/C=C/[S+]([O-])C1=C(C(=O)O)N2C(=O)[C@@H]([C@H](C)O)[C@H]2C1 (stereo partly drawn) [C-19393 E5]																					Antibacterial/antimicrobial activity [1]: highly active against both gram-positive and gram-negative bacteria; also recorded: strong antimicrobial activity against gram-positive and gram-negative bacteria; Stability of aqueous solution [2]: stable in the neutral pH region
CSCC[C@H](N)C(=O)O [L-Methionine, L-methionine]	+	++	+++	+++	+++	+++	+	++	++	+++	+++	+++	+++	+++	+++	+++	+++	+++	++	+++	Growth ([6]; 12.5 mg/l): +++; Growth ([6]; 25 mg/l): +++; Growth ([6]; 50 mg/l): +++; Growth ([6]; 100 mg/l): +++; Growth ([7]; 3.125 mg/l): +++; Growth ([7]; 6.25 mg/l): +++; Growth ([7]; 12.5 mg/l): +++; Growth ([7]; 25 mg/l): +++; Growth ([7]; 50 mg/l): ++ +; Growth ([7]; 100 mg/l): +++
O=[Se](=O)(O)O [Sodium selenate, sodium selenate]																					Growth ([8]; 62.5 mg/l): ++; Growth ([8]; 125 mg/l): ++; Growth ([8]; 250 mg/l): ++; Growth ([8]; 500 mg/l): ++; Growth ([8]; 1000 mg/l): ++; Growth ([8]; 2000 mg/l): +; Growth ([9]; 62.5 mg/l): +++; Growth ([9]; 125 mg/l): ++; Growth ([9]; 250 mg/l): ±; Growth ([9]; 1000 mg/l): -; Growth ([9]; 2000 mg/l): -; MIC [10]: ≥ 250 µg/mL
CC(=O)N/C=C/[S+]([O-])C1=C(C(=O)O)N2C(=O)[C@@H]([C@H](C)O)[C@H]2C1 (stereo partly drawn) [C-19393 E5 sodium salt]																					Solubility ([11]; in acetone): insoluble; Solubility ([11]; in benzene): insoluble; Solubility ([11]; in ethyl acetate): insoluble; Solubility ([11]; in water): Readily soluble; MIC [12]: 0.78 µg/mL; MIC [13]: 0.78 µg/mL; MIC [14]: 1.56 µg/mL; MIC [15]: 6.25 µg/mL; MIC [16]: 0.78 µg/mL; MIC [17]: 6.25 µg/mL; MIC [18]: 0.78 µg/mL; MIC [19]: 6.25 µg/mL; MIC [20]: 1.56 µg/mL; MIC [21]: 3.13 µg/mL; MIC [22]: 0.2 µg/mL; MIC [23]: 0.78 µg/mL
N[C@@H](CS)C(=O)O [L-Cysteine, L-cysteine]	+	++	+++	+++	+++	+++	+	+	++	+++	+++	+++	+++	+++	+++	+++	+++	+++	++	+++	Growth ([6]; 12.5 mg/l): +++; Growth ([6]; 25 mg/l): +++; Growth ([6]; 50 mg/l): +++; Growth ([6]; 100 mg/l): +++; Growth ([7]; 3.125 mg/l): +++; Growth ([7]; 6.25 mg/l): +++; Growth ([7]; 12.5 mg/l): +++; Growth ([7]; 25 mg/l): +++; Growth ([7]; 50 mg/l): +++; Growth ([7]; 100 mg/l): +++
O=S([O-])([O-])=S.[Na+].[Na+] [Sodium thiosulfate, sodium thiosulfate]	±	±	±	+	++	+++	+	+	++	+++	+++	+++	+++	+++	+++	+++	+++	+++	+	++	Growth ([6]; 12.5 mg/l): ++; Growth ([6]; 25 mg/l): +++; Growth ([6]; 50 mg/l): +++; Growth ([6]; 100 mg/l): +++; Growth ([7]; 3.125 mg/l): +++; Growth ([7]; 6.25 mg/l): +++; Growth ([7]; 12.5 mg/l): +++; Growth ([7]; 25 mg/l): +++; Growth ([7]; 50 mg/l): +++; Growth ([7]; 100 mg/l): +++
